Measurements: patent publication US20250034170A1, “SMALL MOLECULE MODULATORS OF GLUCOCEREBROSIDASE ACTIVITY AND USES THEREOF” (Vanqua Bio, Inc., priority 2021, published 2025)
pEC50: −log10 of the molar value.

Target: T1, GCase (Homo sapiens, UniProt P04062)
T1 construct: endogenous in cells; host or cells: HeLa cells
T1 sequence (P04062 40-536): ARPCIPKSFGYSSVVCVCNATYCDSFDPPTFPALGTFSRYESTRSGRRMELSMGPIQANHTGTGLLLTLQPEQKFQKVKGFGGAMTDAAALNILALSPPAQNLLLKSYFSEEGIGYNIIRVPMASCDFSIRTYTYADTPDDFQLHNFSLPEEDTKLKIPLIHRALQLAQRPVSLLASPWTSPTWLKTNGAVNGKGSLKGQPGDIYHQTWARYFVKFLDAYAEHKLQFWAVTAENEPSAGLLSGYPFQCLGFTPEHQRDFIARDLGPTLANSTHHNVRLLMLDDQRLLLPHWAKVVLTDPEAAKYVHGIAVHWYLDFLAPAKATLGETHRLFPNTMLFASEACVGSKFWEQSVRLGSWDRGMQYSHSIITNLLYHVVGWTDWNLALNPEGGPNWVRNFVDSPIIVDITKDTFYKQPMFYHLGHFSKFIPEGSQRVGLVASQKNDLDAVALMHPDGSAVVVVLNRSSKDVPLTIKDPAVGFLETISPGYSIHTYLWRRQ
Experiment: activation of GCase in a live cell PFB assay in HELA cells
Format: cell-based
Settings: EC50 given as range classes
Procedure: Exemplary compounds were evaluated for activation of GCase in a live cell PFB assay in HELA cells (essentially as described in Ysselstein et al., “LRRK2 kinase activity regulates lysosomal glucocerebrosidase in neurons derived from Parkinson's disease patients” Nature Communications (2019) 10:5570). […] EC50 ranges: A: <10 μM; B: >10-50 μM; C: >50-100 μM; D: >100 μM.

Row | SMILES | pEC50
1 | FC(F)(F)c1ncc(N2CC3(CCN(c4cnc5cnn(C6COC6)c5n4)C3)C2)cn1 [Cmpd 427] | 4.30 to 5.00
2 | COc1ncc(N2CC3(CCN(c4cnc5cnn(CC(F)F)c5n4)C3)C2)cn1 [Cmpd 410] | 4.00 to 4.30
3 | Cc1nc(N2CC3(CCN(c4ccc5cnn(CC(F)F)c5n4)C3)C2)cc(C(F)(F)F)n1 [Cmpd 621] | 4.30 to 5.00
4 | Cc1nc(N2CC3(CCN(c4ncc5cnn(C6COC6)c5n4)C3)C2)cc(C(F)(F)F)n1 [Cmpd 589] | 4.30 to 5.00
5 | Cc1nc(N2CC3(CCN(c4ncc5cnn(C(C)(C)C)c5n4)C3)C2)cc(C(F)(F)F)n1 [Cmpd 629] | 4.30 to 5.00
6 | Cc1ncc(N2CC3(CCN(c4ncc5c(C)nn(CC(F)F)c5n4)C3)C2)c(C(F)(F)F)n1 [Cmpd 591] | > 5.00
7 | CCn1ncc2c(=O)n(C)c(N3CCC4(CN(c5cnc(C(F)(F)F)nc5)C4)C3)nc21 [Cmpd 990] | > 5.00
8 | O=C1CCC2(CCN(c3cnc4cnn(CC(F)F)c4n3)C2)CN1c1cc(C(F)(F)F)ccn1 (stereo not drawn) [Cmpd 794] | > 5.00
9 | Cc1cnc(N2CCC3(CCN(c4cnc5cnn(CC(F)F)c5n4)CC3)C2)nc1C(F)(F)F [Cmpd 785] | < 4.00
10 | FC(F)Cn1ncc2ncc(N3CCC4(CC3)CC(Nc3cccc(C(F)(F)F)n3)C4)nc21 [Cmpd 232] | 4.30 to 5.00
11 | FC(F)Cn1ncc2ncc(NC3CCC4(CC3)CN(c3ccc(C(F)(F)F)nc3)C4)nc21 [Cmpd 200] | 4.30 to 5.00
12 | FC(F)(F)c1cc(N2CC3(CCN(c4cncc(-c5ncc(C(F)(F)F)s5)n4)C3)C2)ccn1 [Cmpd 1028] | 4.30 to 5.00
13 | Cc1nn(CC(F)F)c2nc(N3CCC4(CN(c5ccnc(C(F)(F)F)c5)C4)C3=O)ncc12 [Cmpd 1000] | > 5.00
14 | Cc1ncc(N2CC3(CCN(c4ncc5cnn(C6COC6)c5n4)C3)C2)c(C(F)(F)F)n1 [Cmpd 598] | 4.30 to 5.00
15 | FC(F)Cn1ncc2ncc(N3CCOC4(CCN(c5ccc(C(F)(F)F)cn5)CC4)C3)nc21 [Cmpd 212] | 4.30 to 5.00
16 | O=C1N(c2ncc3cnn(C4COC4)c3n2)CCC12CN(c1ccnc(C(F)(F)F)c1)C2 [Cmpd 1004] | 4.30 to 5.00

Same assay, conditions: activation of GCase, EC50 ranges

Row | SMILES | pEC50
17 | FC(F)Cn1ncc2ncc(N3CCC4(CCCN(c5cccc(C(F)(F)F)n5)C4)C3)nc21 (stereo not drawn) [Compound 36, 2-[1-(2,2-difluoroethyl)-1H-pyrazolo[3,4-b]pyrazin-6-yl]-7-[6-(trifluoromethyl)pyridin-2-yl]-2,7-diazaspiro[4.5]decane] | 4.30 to 5.00
18 | CCN1C(=O)N(c2ccc(C(F)(F)F)nc2)C(=O)C12CCN(c1cnc3cnn(C4COC4)c3n1)CC2 [Cmpd 866] | 4.30 to 5.00
19 | Cc1nc(N2CCC3(CCN(c4ncc5cnn(CC(F)(F)F)c5n4)CC3)C2)cc(C(F)(F)F)n1 [Cmpd 572] | > 5.00
20 | CCc1nccn1-c1cncc(N2CCC3(CC2)CCN(c2cc(C(F)(F)F)ccn2)C3=O)n1 [Cmpd 262] | > 5.00
21 | O=C1CCC2(CN(c3cnc4cnn(CC(F)F)c4n3)C2)CN1c1cccc(C(F)(F)F)n1 [Compound 114, 2-[1-(2,2-difluoroethyl)-1H-pyrazolo[3,4-b]pyrazin-6-yl]-6-[6-(trifluoromethyl)pyridin-2-yl]-2,6-diazaspiro[3.5]nonan-7-one] | 4.30 to 5.00
22 | O=C1CC2(CCN(c3cnc4cnn(CC(F)F)c4n3)CC2)CN1c1ncccc1C(F)(F)F [Cmpd 686] | < 4.00
23 | FC(F)Cn1ncc2ncc(N3CCC4(CCC(Oc5cccc(C(F)(F)F)n5)C4)CC3)nc21 (stereo not drawn) [Compound 81, 8-[1-(2,2-difluoroethyl)-1H-pyrazolo[3,4-b]pyrazin-6-yl]-2-{[6-(trifluoromethyl)pyridin-2-yl]oxy}-8-azaspiro[4.5]decane] | 4.30 to 5.00
24 | O=C1CC2(CCN(c3cnc4cnn(CC(F)F)c4n3)CC2)CN1c1cncc(C(F)(F)F)c1 [Cmpd 681] | 4.30 to 5.00
25 | FC(F)Cn1ncc2ncc(N3CCCC4(C3)CN(c3ccncc3C(F)(F)F)C4)nc21 [Compound 35, 6-[1-(2,2-difluoroethyl)-1H-pyrazolo[3,4-b]pyrazin-6-yl]-2-[3-(trifluoromethyl)pyridin-4-yl]-2,6-diazaspiro[3.5]nonane] | 4.30 to 5.00
26 | CCn1c(N2CCC3(CN(c4ccnc(C(F)(F)F)c4)C3)C2)nc2c(cnn2CC(F)F)c1=O [Cmpd 1101] | 4.30 to 5.00
27 | CC[C@H]1N(c2ccnc(C(F)(F)F)c2)C(=O)CC12CCN(c1cnc3cnn(CC(F)F)c3n1)CC2 [Cmpd 854] | 4.30 to 5.00
28 | Cc1cc(N2CCC3(CCN(c4cnc5cnn(CC(F)F)c5n4)CC3)C2)nc(C(F)(F)F)n1 [Cmpd 528] | > 5.00
29 | Cc1cnc(C(F)(F)F)nc1N1CCC2(CCN(c3cnc4cnn(CC(F)F)c4n3)CC2)C1=O [Cmpd 842] | 4.30 to 5.00
30 | FC(F)Cn1ncc2ncc(N3CCC4(CCN(c5ccnc(C(F)(F)F)n5)C4)CC3)nc21 [Cmpd 737] | > 5.00
31 | FC(F)Cn1ncc2ncc(N3CCCC4(CC(Oc5ncccc5C(F)(F)F)C4)C3)nc21 (stereo not drawn) [Compound 32, 6-[1-(2,2-difluoroethyl)-1H-pyrazolo[3,4-b]pyrazin-6-yl]-2-{[3-(trifluoromethyl)pyridin-2-yl]oxy}-6-azaspiro[3.5]nonane] | 4.30 to 5.00
32 | O=C1CC2(CCN(c3cnc4cnn(CC(F)F)c4n3)CC2)CN1Cc1cnc(OCC(F)(F)F)nc1 [Cmpd 894] | 4.30 to 5.00
33 | FC(F)Cn1ncc2ncc(N3CCC4(CCN(c5ncccc5C(F)(F)F)CC4)C3)nc21 [Compound 151, 2-[1-(2,2-difluoroethyl)-1H-pyrazolo[3,4-b]pyrazin-6-yl]-8-[3-(trifluoromethyl)pyridin-2-yl]-2,8-diazaspiro[4.5]decane] | 4.30 to 5.00
34 | FC(F)(F)c1cncc(N2CCC3(CCN(c4cncc(-c5nncs5)n4)CC3)C2)c1 [Cmpd 235] | 4.00 to 4.30
35 | CCN1C(=O)N(c2ccnc(C(F)(F)F)n2)C(=O)C12CCN(c1cnc3cnn(CC(F)F)c3n1)CC2 [Cmpd 906] | 4.30 to 5.00
36 | O=C1CC2(CCN(c3cnc4cnn(CC(F)F)c4n3)CC2)CN1c1ccnc(C(F)(F)F)n1 [Cmpd 895] | > 5.00
37 | CCN1C(=O)N(c2ccnc(C(F)(F)F)n2)C(=O)C12CCN(c1cnc3cnn(C4COC4)c3n1)CC2 [Cmpd 909] | 4.30 to 5.00

Row | SMILES | pEC50
38 | O=S(=O)(c1ccc(C(F)(F)F)cc1)N1CC2(CCN(c3cnc4cnn(CC(F)F)c4n3)C2)C1 [Cmpd 372] | 4.30 to 5.00
39 | CCc1nn(CC(F)F)c2nc(N3CCC4(CN(c5ccnc(C(F)(F)F)c5)C4)C3)ncc12 [Cmpd 1071] | > 5.00
40 | O=C1N(c2cnc3cnn(CC(F)F)c3n2)CCC12CCN(c1ncccc1C(F)(F)F)CC2 [Compound 120, 2-[1-(2,2-difluoroethyl)-1H-pyrazolo[3,4-b]pyrazin-6-yl]-8-[3-(trifluoromethyl)pyridin-2-yl]-2,8-diazaspiro[4.5]decan-1-one] | > 5.00
41 | Cc1nc(N2CC3(CCN(c4cnc5cnn(CC(F)(F)F)c5n4)C3)C2)cc(C(F)(F)F)n1 [Cmpd 499] | > 5.00
42 | FC(F)Cn1ncc2ncc(N3CCC4(CCN(c5cnc(C(F)(F)F)cn5)C4)CC3)nc21 [Cmpd 734] | > 5.00
43 | O=C1CC2(CCN(c3cnc4cnn(CC(F)F)c4n3)CC2)CN1Cc1ccc(Cl)cc1 [Cmpd 445] | 4.30 to 5.00
44 | Cc1nn(C2COC2)c2nc(N3CCC4(CCN(c5ccnc(C(F)(F)F)c5)C4)C3)ncc12 (stereo not drawn) [Cmpd 475] | < 4.00
45 | Cc1nn(C2COC2)c2nc(N3CCC4(CCN(c5ccc(C(F)(F)F)nc5)C4)CC3)cnc12 [Cmpd 888] | > 5.00
46 | FC(F)Cn1ncc2ncc(N3CCC4(CCCC4COc4cccc(C(F)(F)F)n4)CC3)nc21 (stereo not drawn) [Compound 80, 8-[1-(2,2-difluoroethyl)-1H-pyrazolo[3,4-b]pyrazin-6-yl]-1-({[6-(trifluoromethyl)pyridin-2-yl]oxy}methyl)-8-azaspiro[4.5]decane] | 4.30 to 5.00
47 | FC(F)Cn1ncc2ncc(N3CCC4(CC3)CC(Oc3cncc(C(F)(F)F)c3)C4)nc21 [Cmpd 704] | > 5.00
48 | Cc1cn2nc(N3CCC4(CN(c5cc(C(F)(F)F)nc(C)n5)C4)C3)ccc2n1 [Cmpd 638] | 4.30 to 5.00
49 | Cc1cc(N2CC3(CCN(c4cncc(-c5nncs5)n4)C3)C2)nc(C(F)(F)F)n1 [Cmpd 465] | < 4.00
50 | Fc1cc(F)cc(OC2CC3(CCCN(c4cnc5cnn(CC(F)F)c5n4)C3)C2)c1 (stereo not drawn) [Compound 31, 6-[1-(2,2-difluoroethyl)-1H-pyrazolo[3,4-b]pyrazin-6-yl]-2-(3,5-difluorophenoxy)-6-azaspiro[3.5]nonane] | 4.30 to 5.00
51 | Cc1nc(N2CCC3(CCN(c4cnc5c(C)nn(C6COC6)c5n4)CC3)C2)cc(C(F)(F)F)n1 [Cmpd 549] | < 4.00
52 | O=S(=O)(c1ccc(F)cc1)N1CC2(CCN(c3cnc4cnn(CC(F)F)c4n3)C2)C1 [Cmpd 373] | 4.30 to 5.00
53 | FC(F)c1nnc(-c2cncc(N3CCC4(CN(c5ccnc(C(F)(F)F)c5)C4)C3)n2)s1 [Cmpd 1062] | 4.30 to 5.00
54 | Cc1nn(C2COC2)c2nc(N3CCC4(CC3)CN(c3cc(C(F)(F)F)ccn3)C4)cnc12 [Cmpd 480] | 4.30 to 5.00
55 | O=C1N(Cc2cccc(C(F)(F)F)n2)CCC12CCN(c1cnc3cnn(CC(F)F)c3n1)CC2 [Cmpd 354] | > 5.00
56 | CCN1C(=O)N(c2ccc(C(F)(F)F)cc2)C(=O)C12CCN(c1cnc3cnn(C4COC4)c3n1)CC2 [Cmpd 869] | 4.30 to 5.00
57 | O=C(c1ccc2cc[nH]c2c1)N1CCCC2(CC(Oc3cnccc3C(F)(F)F)C2)C1 (stereo not drawn) [Compound 40, 6-(1H-indole-6-carbonyl)-2-{[4-(trifluoromethyl)pyridin-3-yl]oxy}-6-azaspiro[3.5]nonane] | 4.00 to 4.30
